Patent publication US11014934B2, “Antiseptic drug” (AO “TATKHIMFARMPREPARATY”, priority 2017, dated 2021)
In brackets after ≈: the same amount, converted by molar mass.

Key:
[1] = system: E. coli CDC F-50; experiment: Antiseptic activity on rat skin; type: in vivo; conditions: E. coli CDC F-50 on rat skin; antiseptic concentration 0.2%; exposure time 5 min; n = 6
Method: The study of the antiseptic activity of compound I in rats […] was carried out in accordance with [R 4.2.2643-10 Metody laboratornykh issledovaniy i ispytaniy mediko-profilakticheskikh dezinfektsionnykh sredstv dlya otsenki ikh effektivnosti i bezopasnosti: Rukovodstvo.—M: Federal'nyy tsentr gigiyeny i epidemiologii Rospotrebnadzora, 2010.—S. 615. R 4.2.2643-10 Laboratory methods for the study and testing of medical prophylactic disinfectants to assess their effectiveness and safety: Guide.—M.:: Federal Center for Hygiene and Epidemiology of Rospotrebnadzor, 2010.—P. 615]. Experiments were carried out on male Wistar rats with a body weight of 180-250 g.
A culture of E. coli CDC F-50, grown on dense nutrient medium for (18-20) hours, was washed with sterile isotonic chloride solution, centrifuged at 5000 rpm for 5 minutes, the supernatant was drained and cells were resuspended with sterile isotonic sodium chloride solution.
The bacterial suspension of microorganisms was brought to a turbidity of […] according to McFarland, which corresponds to a concentration of 1.5×10^7 cells/ml.
Animals were formed in 5 groups of 6 animals each. All manipulations with animals were performed under isoflurane anesthesia (4%—induction of anesthesia (2 min, 1 l/min), 2%—basis narcosis). A portion of 5×5 cm was shaved with a hair clipper on the dorsal part of the body of the animal.
A 0.25 ml microbial suspension containing 1×10^7 CFU of E. coli CDC F-50 was applied to the shaved portion of the rat back with a dispenser and distributed with a sterile disposable spatula over the entire square area. It was left for 2-3 minutes until dry.
Then, a gauze cloth (5×5 cm) was applied to the skin of rats for 5 minutes. In the experimental group, the tissue was pre-wetted with 1 ml of 0.2% solution of compound I, and in the positive control groups, the tissue was dipped in 1 ml of 0.2% miramistin, benzalkonium chloride and chlorhexidine. In the negative control group, the cloth was immersed in 1 ml of sterile saline. […]
After the time required for the cultivation of microorganisms of this species, the results were counted according to the number of colonies grown on the Petri dish. […] After counting the number of colonies grown on Petri dishes, the density of contamination per 1 cm^2 of the surface and the percentage of disinfection were calculated, taking the number of colonies removed from control surfaces and not exposed to antiseptics action as 100%. The percentage of growth inhibition of E. coli CDC F-50 was calculated by the formula: […]

[2] = system: Stylonychia mytilus; experiment: Antiprotozoal activity by death of protozoa; type: cell-based; conditions: death of protozoa
Method: Evaluation of the antiprotozoal activity of compound I was determined by the viability of the protozoa genus of hypotrichs Stylonychia mytilus in a nutrient medium in the presence of the studied substances. A mother liquor of compound I (10 mg/ml) was prepared in a mixture of DMSO and 96% ethanol (1:1). A 1% aqueous solution of DMSO and ethyl alcohol served as a negative control, and miramistin, benzalkonium chloride, and chlorhexidine were used as reference preparations. Then, from the mother liquors by repeated dilutions with water, working solutions were prepared corresponding to doses of 5; 10; 20; 25; 50; 75; 100 and 150 μg/ml. 10 μl of culture medium with protozoa and 10 μl of a solution of the test substance were applied to a chamber slide. The experiment was done in five replicates.
Slides were examined under a light microscope, antiprotozoal activity of substances (MIC and IC50) were determined by the death of protozoa. The Hill regression model with 5 parameters was used for the analysis.

`[H]/N=C(\N/C(=N/[H])NCCCCCCNC(=N)NC(=N)Nc1ccc(Cl)cc1)Nc1ccc(Cl)cc1` [Chlorhexidine] was tested, and the “Growth inhibition rate (M ± SD)” value [1] was 95.7 ± 3.4%, the IC50 ([2]; Hill regression, read-out: IC50 (95% confidence interval)) was 42 µg/mL (≈ 83.1 µM) and the MIC ([2]; read-out: MIC) was 20 µg/mL (≈ 39.6 µM).
